In patent US10576102B2, “KOC1-derived peptide and vaccine including same” (ONCOTHERAPY SCIENCE, INC., priority 2014, dated 2020):
“Also recorded” adds a separate entry of the source.

How the values were obtained:
[1] = test system: peptide-pulsed C1R-A01; experiment: In vitro CTL induction, IFN-gamma ELISPOT assay (HLA-A*0101); format: cell-based, human; conditions: CTLs induced with peptide-pulsed DCs from HLA-A*0101-positive volunteers; day 21; vs peptide-pulsed C1R-A01, compared with unpulsed control
Description: C1R (C1R-A01) that stably expresses HLA-A*0101 was used as a stimulator cell. A cDNA encoding the open-reading frame of HLA-A*0101 was amplified by PCR and cloned into an expression vector. C1R cells were transfected with the expression vector, and then selected using G418 (Invitrogen) for two weeks. The G418-selected cells were seeded into wells containing G418-added culture medium in a 96-well plate, and further cultured for 30 days. The exogenous HLA-A*0101 expression in C1R cells was verified by flow cytometric analysis.
(§1) Monocyte-derived dendritic cells (DCs) were used as the antigen-presenting cell to induce a cytotoxic T lymphocyte (CTL) response against peptides presented on human leukocyte antigens (HLAs). As described in the other sections, DCs were generated in vitro (Nakahara S et al., Cancer Res 2003, 63(14): 4112-8). Specifically, peripheral-blood mononuclear cells isolated from healthy volunteers (HLA-A*0101-positive) with the Ficoll-Paque plus solution (Pharmacia) were separated by attaching to plastic tissue culture dishes (Becton Dickinson) and concentrated as a monocyte fraction. The monocyte-concentrated population was cultured in the presence of 1000 IU/ml granulocyte macrophage colony-stimulating factor (R&D System) and 1000 IU/ml interleukin(IL)-4 (R&D System) in an AIM-V medium (Invitrogen) containing 2% heat-inactivated autologous serum (AS). After seven days of culturing, the cytokine-induced DCs were pulsed with 20 micro-g/ml each of the synthesized peptides in an AIM-V medium at 37 degrees C. for three hours in the presence of 3 micro-g/ml beta 2-microglobulin. Next, these peptide-pulsed DCs were inactivated by X-ray irradiation (20 Gy), and mixed in a 1:20 ratio with autologous CD8^+ T cells obtained by positive selection using the CD8 Positive Isolation Kit (Dynal). These culture products were seeded in a 48-well plate (Corning). Each well was made to contain 1.5×10^4 peptide-pulsed DCs, 3×10^5 CD8^+ T cells and 10 ng/ml IL-7 (R&D System) in 0.5 ml of the AIM-V/2% AS medium. Three days later, these culture products were added with a final concentration of 20 IU/ml IL-2 (CHIRON). On day 7 and day 14, T cells were further stimulated with peptide-pulsed autologous DCs. The DCs were prepared every time by the same method as above. On day 21, after the third peptide stimulation, CTL activities were examined against the peptide-pulsed C1R-A01 cells (Tanaka H et al., Br J Cancer 2001, 84(1): 94-9; Umano Y et al., Br J Cancer 2001, 84(8): 1052-7; Uchida N et al., Clin Cancer Res 2004, 10(24): 8577-86; Suda T et al., Cancer Sci 2006, 97(5): 411-9; Watanabe T et al., Cancer Sci 2005, 96(8): 498-506).
(§2) Specifically, peptide-pulsed C1R-A01 (1×10^4 cells/well) was prepared as the stimulator cell. The induced CTLs, i.e., CTL lines and CTL clones, were used as the responder cell. The IFN-gamma ELISPOT assay and IFN-gamma ELISA were performed according to the manufacturer's manual.

[2] = test system: peptide-pulsed C1R-A01; experiment: IFN-gamma ELISA of CTL lines and CTL clone (HLA-A*0101); format: cell-based, human; conditions: CTL lines; target cells pulsed with the peptide vs not pulsed; C1R-A01
Description: (§3) CTLs were propagated in culture using methods similar to those disclosed by Riddell et al. (Walter E A et al., N Engl J Med 1995, 333(16): 1038-44; Riddell S R et al., Nat Med 1996, 2(2): 216-23). The CTLs were co-cultured in a total of 25 ml AIM-V medium containing 5% AS and 40 ng/ml anti-CD3 antibody with two types of Mitomycin C-treated human B lymphoblastoid cell lines at 5×10^6 cells. One day after beginning of the culturing, 120 IU/ml IL-2 was added to the culture. On days 5, 8 and 11, a fresh AIM-V/5% AS medium containing 30 IU/ml IL-2 was added to the culture (Tanaka H et al., Br J Cancer 2001, 84(1): 94-9; Umano Y et al., Br J Cancer 2001, 84(8): 1052-7; Uchida N et al., Clin Cancer Res 2004, 10(24): 8577-86; Suda T et al., Cancer Sci 2006, 97(5): 411-9; Watanabe T et al., Cancer Sci 2005, 96(8): 498-506).
CTLs were seeded to make 1 or 10 cells/well in 96 round-bottomed microtiter plates (Nalge Nunc International). The CTLs were co-cultured with two types of Mitomycin C-treated human B lymphoblastoid cell lines at 1×10^4 cells in a total of 150 micro-1/well 5% AS-containing AIM-V medium with 30 ng/ml anti-CD3 antibody and 125 IU/ml IL-2. Ten days later, 50 micro-1 of IL-2 was added to the medium to reach a final IL-2 concentration of 125 IU/ml. On day 14, the CTL activity was tested, and the CTL clones were propagated using the same method as described above (Uchida N et al., Clin Cancer Res 2004, 10(24): 8577-86; Suda T et al., Cancer Sci 2006, 97(5): 411-9; Watanabe T et al., Cancer Sci 2005, 96(8): 498-506).
as §2

[3] = test system: peptide-pulsed C1R-A11; experiment: In vitro CTL induction, IFN-gamma ELISPOT assay (HLA-A*1101); format: cell-based, human; conditions: CTLs induced with peptide-pulsed DCs from HLA-A*1101-positive volunteers; day 21; vs peptide-pulsed C1R-A11, compared with unpulsed control
Description: C1R (C1R-A11) that stably expresses HLA-A*1101 was used as a stimulator cell. A cDNA encoding the open-reading frame of HLA-A*1101 was amplified by PCR and cloned into an expression vector. C1R cells were transfected with the expression vector, and then selected using G418 (Invitrogen) for two weeks. The G418-selected cells were seeded into wells containing G418-added culture medium in a 96-well plate, and further cultured for 30 days. The exogenous HLA-A*1101 expression in C1R cells was verified by flow cytometric analysis.
as §1, with “volunteers (HLA-A*1101-positive)” for “volunteers (HLA-A*0101-positive)”, “2-microglobulin. The generated cells appeared to express on their cell surface DC-associated molecules such as CD80, CD83, CD86 and HLA class II (data not shown).” for “2-microglobulin.”, “were inactivated,” for “were inactivated”, “stimulation, CTLs” for “stimulation, CTL activities”, “peptide-pulsed C1R-A11 by a human interferon (IFN)-gamma enzyme-linked immunospot (ELISPOT) assay” for “peptide-pulsed C1R-A01 cells”
(§4) Specifically, peptide-pulsed C1R-A11 (1×10^4 cells/well) was prepared as the stimulator cell. The induced CTLs, i.e., CTL lines and CTL clones, were used as the responder cell. The IFN-gamma ELISPOT assay and IFN-gamma ELISA were performed according to the manufacturer's manual.

[4] = test system: peptide-pulsed C1R-A11; experiment: IFN-gamma ELISA of CTL lines and CTL clones (HLA-A*1101); format: cell-based, human
Description: as §3, with “5% AS (AIM-V/5% AS) and 40” for “5% AS and 40”, “at 5×10^6 cells/flask. One day” for “at 5×10^6 cells. One day”
Dilution of CTLs was carried out to make 0.3, 1 and 3 cells/well in 96 round-bottomed microtiter plates (Nalge Nunc International). The CTLs were co-cultured with two types of Mitomycin C-treated human B lymphoblastoid cell lines at 1×10^4 cells/well in a total of 150 micro-1/well AIM-V/5% AS medium with 30 ng/ml anti-CD3 antibody and 125 IU/ml IL-2. Ten days later, IL-2 was added to the medium at 50 micro-1/well to reach a final concentration of 125 IU/ml. On day 14, the CTL activity was tested, and the CTL clones were propagated using the same method as described above (Uchida N et al., Clin Cancer Res 2004, 10(24): 8577-86; Suda T et al., Cancer Sci 2006, 97(5): 411-9; Watanabe T et al., Cancer Sci 2005, 96(8): 498-506).
as §4

[5] = test system: COS7 cells transfected with both KOC1 and HLA-A*1101; experiment: Specific CTL activity against target cells expressing KOC1 and HLA-A*1101; format: cell-based, African green monkey; conditions: listed as KOC1-A11-10-14
Description: as §4
A cDNA encoding the open-reading frame of a target gene or HLA-A*1101 was amplified by PCR. The PCR-amplified product was cloned into an expression vector. Either or both of the target gene-expressing vector and the HLA-A*1101-expressing vector were transfected into […], which is a cell line negative for the target gene and HLA, using Lipofectamine 2000 (Invitrogen) following the manufacturer's recommended protocol. Two days after transfection, the transfected cells were harvested using versene (Invitrogen), and used as the target cell for CTL activity assay (5×10^4 cells/well).
The CTL clone established against KOC1-A11-10-14 (SEQ ID NO: 32) was investigated for its ability to recognize target cells expressing KOC1 and the HLA-A*1101 molecule. COS7 cells transfected with both full-length KOC1 and the HLA-A*1101 gene (a specific model of target cells expressing KOC1 and the HLA-A*1101 gene) were prepared as the target cell. COS7 cells transfected with either full-length KOC1 or HLA-A*1101 were prepared as the control.

Sequence	peptide-specific CTL activity (IFN-gamma production), ELISPOT [1]	IFN-gamma production of CTL lines, ELISA [2]	peptide-specific CTL activity (IFN-gamma production), ELISPOT [3]	IFN-gamma production of CTL clones, ELISA ([4]; CTL clones by limiting dilution, peptide-pulsed C1R-A11, listed as KOC1-A11-10-14)	IFN-gamma production of CTL lines, ELISA ([4]; CTL lines, target cells pulsed with the peptide vs not pulsed, C1R-A11)	specific CTL activity of CTL clone against target cells expressing KOC1 and HLA-A*1101 ([5]; COS7 transfected with both full-length KOC1 and HLA-A*1101)	specific CTL activity of CTL clone against control cells ([5]; COS7 transfected with either full-length KOC1 or HLA-A*1101)
ETAVVNVTY (a peptide derived from KOC1) [SEQ ID NO: 87]	potent IFN-gamma production	potent IFN-gamma production					
APSDLESIFK (a peptide derived from KOC1) [SEQ ID NO: 32]			potent IFN-gamma production	Potent IFN-gamma production	potent IFN-gamma production	specific CTL activity; also recorded: potent CTL activity	a significant specific CTL activity was not shown; also recorded: a significant specific CTL activity was not detected
